Measurements reported in patent publication EP2724723A1, “Tegaserod for use in the treatment of nerve injuries” (Universitätsklinikum Hamburg-Eppendorf, priority 2012, dated 2014).

Legend:
[1] = tested on: anti-PSA antibody 735; assay: Competition ELISA: antibody 735 binding to immobilized PSA mimicking peptide
Description: To confirm that the compounds identified in the screening from Example 1 are indeed PSA mimetics, binding of tegaserod maleate ((E)-but-2-enedioic acid; 1-[[(Z)-(5-methoxyindol-3-ylidene) methyl]amino]-2-pentylguanidine; hereafter termed tegaserod) and the control compound nitrendipine (5-O-ethyl 3-O-methyl-2,6-dimethyl-4-(3-nitrophenyl)-1,4-dihydropyridine-3,5-dicarboxylate) to the PSA antibody 735 was analyzed by competition ELISA. 384-well flat bottom microtiter plates (Corning Life Sciences) were coated in triplicates with 25 µl of PSA mimicking peptide coupled to catalase (3 µg/ml) or PBS alone at 4°C overnight. All following steps were carried out at room temperature. After blocking with 1% BSA in PBS for 1 h, the wells were washed three times for 5 min with PBS containing 0.05% Tween-20 (PBST). Wells were incubated with increasing concentrations of tegaserod and nitrendipine, pre-incubated with anti-PSA antibody 735 (0.1 µg/ml) for 1 h. […] The reaction was stopped by addition of 50 µl 2.5 M H2SO4 and quantified using an ELISA reader (µQuant, Bio-TEK, Winooski, VT, USA) at 490 nm and the software KCjunior (Bio-TEK).

[2] = tested on: murine motoneurons; assay: In vitro neurite outgrowth of motoneurons; format: cell-based, C57BL/6J mice; conditions: tegaserod, cisapride, GR113808 100 nM; colominic acid 3 µM; PSA mimicking peptide 30 µM; Figure 2B
Description: (§1) Primary cultures of cerebellar neurons or Schwann cells were prepared from cerebellum or dorsal root ganglia of 7-day-old C57BL/6J mice as described in Mehanna et al. (2009), Brain, 132 (Pt 6): 1449-62 and Loers et al. (2005), J. Neurochem., 92(6): 1463-76. Motoneurons were prepared from E14 C57BL/6J mice as described in Simova et al. (2006), Ann. Neurol., 60(4): 430-437. In brief, 48-well plates were coated with 0.01% poly-L-lysine (PLL) or poly-L-ornithine (PLO) overnight at 4°C, washed twice with water and air-dried. Directly before use, plates were washed twice with PBS, and Schwann cells, cerebellar neurons (PLL) or motoneurons (PLO) were seeded at a density of 1.25 x 10^4 (Schwann cells and motoneurons) or 2.5 x 10^4 cells (cerebellar neurons) per well in 250 µl of corresponding serum-free culture medium. Soluble organic compounds were added to the culture 1 h after seeding in increasing concentrations. After maintenance for 24 h at 37°C, cells were fixed with 2.5% glutaraldehyde and stained with 1% methylene blue/toluidine blue in 1% borax. Morphological quantification of neurite or process lengths was performed as described in Mehanna et al. (2009), see above. Schwann cell processes and neurites of cerebellar neurons with a length of at least one cell body diameter were counted and total neurite or process length per cell was determined by counting 50 cells in each of two wells per experiment. At least three independent experiments were performed for each culture. Also, the activity of tegaserod with the PSA peptide mimic and the bacterial PSA analogue, colominic acid, on neurite and process extension experiments was compared.

[3] = tested on: motoneurons isolated from NCAM^-/- mice; assay: In vitro neurite outgrowth of NCAM-deficient motoneurons; format: cell-based; conditions: tegaserod 100 nM; colominic acid 3 µM; PSA mimicking peptide 30 µM; Figure 2B
Description: as §1, with “After maintenance for 24 h at 37°C, cells were fixed with 2.5% glutaraldehyde and stained with 1% methylene blue/toluidine blue in 1% borax.” left out, “At least three independent experiments were performed for each culture. Also, the activity of tegaserod with the PSA peptide mimic and the bacterial PSA analogue, colominic acid, on neurite and process extension experiments was compared.” left out

[4] = tested on: Schwann cells; assay: In vitro process outgrowth of Schwann cells; format: cell-based, C57BL/6J mice; conditions: compared to control; Figure 2C, D
Description: as §1, with “After maintenance for 24 h at 37°C, cells were fixed with 2.5% glutaraldehyde and stained with 1% methylene blue/toluidine blue in 1% borax.” left out, “At least three independent experiments were performed for each culture. Also, the activity of tegaserod with the PSA peptide mimic and the bacterial PSA analogue, colominic acid, on neurite and process extension experiments was compared.” left out

[5] = tested on: 2 mm femoral nerve defect; assay: Femoral nerve regeneration: locomotor recovery (FBA, PLR, recovery index); format: in vivo, C57BL/6J mice; conditions: for average FBA (foot base angle): end of the 15-week study, control group 93 degrees
Description: Briefly, mice were anesthetized and the femoral nerve of the left rear leg exposed. The nerve was bis-sected 3 mm proximal to the branching of the saphenous and motor branches, and the nerve ends were sutured 0.5 mm into a 3 mm polyethylene conduits with 0.58 mm inner diameter (Becton Dickinson), leaving an overall gap length of 2 mm.
The FBA measures the angle between the hind paw and a beam as the mouse is pushing and bearing weight with the foot of the injured limb.
FBA is governed largely by the quadriceps muscle, the major muscular innervation target of the femoral nerve. Mice were trained to walk on a beam for 2 weeks prior to surgery and single frame video motion analysis (Simi Reality Motion Systems, Simi Sportsplayer) was used to quantify the angle between the beam and the foot when the toes from the left leg are fully extended.
As a complement to assessment of the FBA that measures a weight-bearing reflexive movement, the protraction limb ratio (PLR) is indicative of voluntary movement of the hind limb. […] Mice are suspended by the tail above a pencil and allowed to grasp the pencil. The PLR is measured by dividing the relative length that the uninjured hind leg extends to the pencil by the length that the injured hind limb extends.
To account for any variability between animals, an index is calculated that takes into account the initial FBA and PLR of animals prior to surgery. The recovery index is calculated by the equation: RI= (Xday y-Xday 1wk)/(Xday 0-Xday 7) x 100, where Xday0 is the measurement before injury, Xday 1wk is the measurement one week after injury, and Xday y is the measurement at the study endpoint. An RI value 100 indicates complete recovery of function.

[6] = tested on: quadriceps muscle; assay: Quadriceps muscle mass after femoral nerve injury; format: in vivo, C57BL/6J mice; conditions: 15 week recovery, control group 111 mg
Description: Tegaserod was evaluated in a 2 mm femoral nerve defect of 12-week old C57BL/6J mice as previously described in Mehanna et al. (2009), see above. Briefly, mice were anesthetized and the femoral nerve of the left rear leg exposed. The nerve was bis-sected 3 mm proximal to the branching of the saphenous and motor branches, and the nerve ends were sutured 0.5 mm into a 3 mm polyethylene conduits with 0.58 mm inner diameter (Becton Dickinson), leaving an overall gap length of 2 mm. Conduits were filled with PuraMatrix peptide hydrogel (Becton Dickinson 354250) using 2x PBS as the gelation stimulant. Tegaserod was dissolved in the 2x PBS at concentrations of 500 nM and 5,000 nM, resulting in final concentrations of 250 nM and 2,500 nM once the PBS was combined 1:1 v/v with the PuraMatrix.
The quadriceps muscle, which is solely innervated by the femoral nerve, was extracted from each mouse and weighed at the end of the 15 week recovery period. The quadriceps muscles were removed from the injured and uninjured hind limbs of the mice. The quadriceps femoris muscle was identified by first removing the skin overlying the cranial thigh. The muscle was bluntly dissected starting distally at the level of the patellar tendon, working proximally. […]

SMILES: [H]/N=C(/NCCCCC)N/N=C/c1c[nH]c2ccc(OC)cc12 [tegaserod, (E)-but-2-enedioic acid; 1-[[(Z)-(5-methoxyindol-3-ylidene)methyl]amino]-2-pentylguanidine]
- concentration of maximal inhibition of binding of mAb 735 with the PSA peptide mimic ([1]; competition ELISA, Figure 1A): approximately 100 nM
- inhibition of binding of mAb 735 with the PSA peptide mimic (in words) ([1]; increasing concentrations, pre-incubated with antibody 735 (0.1 µg/ml) for 1 h): inhibit binding of mAb 735 with the PSA peptide mimic in a dose dependent manner
- effect on neurite extension of murine motoneurons (in words) [2]: significant stimulatory effect
- effect on neurite extension of NCAM^-/- motoneurons (in words) [3]: no enhancement in neurite extension
- effect on process outgrowth of Schwann cells (in words) [4]: significantly enhance neurite/process outgrowth compared to control
- time after nerve injury at which sustained improvement of the FBA first became apparent ([5]; 250 nM in hydrogel conduit): 6 weeks
- time at which FBA improvement became statistically significant from the vehicle control group ([5]; 250 nM in hydrogel conduit): 10 weeks
- average FBA (foot base angle) ([5]; 250 nM in hydrogel conduit): 82 degrees
- average recovery index (RI) for the FBA ([5]; 250 nM, 15 weeks, vehicle control 37%): 62%
- time to return to pre-surgery PLR (protraction limb ratio) ([5]; 250 nM, vehicle control 8 weeks): ≤ 6 weeks
- PLR versus other groups (in words) ([5]; 2,500 nM): remained consistently higher than the other two groups
- FBA recovery versus vehicle control (in words) ([5]; 2,500 nM in hydrogel conduit): did not show statistically significant difference from vehicle control
- average FBA (foot base angle) ([5]; 2,500 nM in hydrogel conduit): 87 degrees
- recovery index (RI) for the FBA ([5]; 2,500 nM, 15 weeks, vehicle control 37%, considerable variation): 51%
- RI of the PLR reached by the majority of mice ([5]; 2,500 nM, a single mouse did not recover): 100%
- average quadriceps muscle mass, injured limb ([6]; 250 nM, non-injured legs 208 mg): 165 mg
- quadriceps muscle mass, injured limb ([6]; 2,500 nM, failed to reach statistical significance): 127 mg
